Values joined by “and” are separate entries in the source; they are usually repeats but may differ in a detail not shown here. Equal entries are not always repeated.
Assays:
Homo sapiens [1] = species on record: Homo sapiens; assay: Half-life for the disappearance in whole human blood; Stable; format: ADME, organism-based; settings: in vitro
Homo sapiens [2] = species on record: Homo sapiens; assay: In vitro rate constant, correlation coefficient for the disappearance in whole human blood; Stable
Rattus norvegicus [3] = species on record: Rattus norvegicus; assay: In vitro rate constant, correlation coefficient for the disappearance in rat liver homogenate; format: ADME
[4] = Half-life for the disappearance in rat liver homogenate; format: ADME
Rattus norvegicus [5] = species on record: Rattus norvegicus; assay: In vitro rate constant, correlation coefficient for the disappearance in rat brain homogenate; format: ADME
[6] = Half-life for the disappearance in rat brain homogenate; format: ADME
Rattus norvegicus [7] = species on record: Rattus norvegicus; assay: In vitro rate constant, correlation coefficient for the conversion to progesterone in whole rat blood.; format: ADME, organism-based
Rattus norvegicus [8] = species on record: Rattus norvegicus; assay: In vitro rate constant, correlation coefficient for the conversion to progesterone in rat liver homogenate; format: ADME

T1/2 (Homo sapiens [1])	T1/2 (Homo sapiens [2])	Correlation coefficient (Rattus norvegicus [3])	half-life [4]	Correlation coefficient (Rattus norvegicus [5])	half-life [6]	Correlation coefficient (Rattus norvegicus [7])	Correlation coefficient (Rattus norvegicus [8])	SMILES
Stable	Stable	0.999	16 min	0.98	106 min			CC(=O)C1CCC2C3CC=C4C=C(OC(=O)C5=CN(C)C=CC5)CCC4(C)C3CCC12C (stereo not drawn)
						0.998	0.996 and 0.994	CC(=O)C1CCC2C3CC=C4C=C(OC(=O)c5ccc[n+](C)c5)CCC4(C)C3CCC12C.[I-] (stereo not drawn)

Source: ChEMBL document CHEMBL1124856, “Extension of a redox-based chemical delivery system to alpha, beta-unsaturated ketones” (J Med Chem, 1990)
